# pIC50: −log10 of the molar value.
# Columns and labels:
# NCI-H460 = test: Cytotoxicity against human NCI-H460 cells assessed as cell growth at 10 uM after 48 hrs by SRB assay relative to control; format: functional; conditions: NCI-H460, 48 h, read-out: Activity
# MDA-MB-231 = test: Cytotoxicity against human MDA-MB-231 cells assessed as growth inhibition after 24 hrs by MTT assay; format: cell-based; conditions: MDA-MB-231, 24 h
# SW-620 = test: Cytotoxicity against human SW620 cells assessed as cell growth at 10 uM after 48 hrs by SRB assay relative to control; format: functional; conditions: SW-620, 48 h, read-out: Activity
# SNB-19 = test: Cytotoxicity against human SNB19 cells assessed as cell growth at 10 uM after 48 hrs by SRB assay relative to control; format: functional; conditions: SNB-19, 48 h, read-out: Activity
# [1] = Cytotoxicity against human OVCAR5 cells assessed as cell growth at 10 uM after 48 hrs by SRB assay relative to control; format: functional; conditions: OVCAR-5, 48 h, read-out: Activity
# NCI-H522 = test: Cytotoxicity against human NCI-H522 cells assessed as cell growth at 10 uM after 48 hrs by SRB assay relative to control; format: functional; conditions: NCI-H522, 48 h, read-out: Activity
# SR = test: Cytotoxicity against human SR cells assessed as cell growth at 10 uM after 48 hrs by SRB assay relative to control; format: functional; conditions: read-out: Activity
# DU-145 = test: Cytotoxicity against human DU145 cells assessed as cell growth at 10 uM after 48 hrs by SRB assay relative to control; format: functional; conditions: DU-145, 48 h, read-out: Activity
# [2] = Cytotoxicity against human UO31 cells assessed as cell growth at 10 uM after 48 hrs by SRB assay relative to control; format: functional; conditions: UO-31, 48 h, read-out: Activity
# [3] = Cytotoxicity against human UACC62 cells assessed as cell growth at 10 uM after 48 hrs by SRB assay relative to control; format: functional; conditions: UACC-62, 48 h, read-out: Activity
# SF-295 = test: Cytotoxicity against human SF295 cells assessed as cell growth at 10 uM after 48 hrs by SRB assay relative to control; format: functional; conditions: SF-295, 48 h, read-out: Activity
# [4] = Cytotoxicity against human OVCAR4 cells assessed as cell growth at 10 uM after 48 hrs by SRB assay relative to control; format: functional; conditions: OVCAR-4, 48 h, read-out: Activity
# SF-268 = test: Cytotoxicity against human SF268 cells assessed as cell growth at 10 uM after 48 hrs by SRB assay relative to control; format: functional; conditions: SF-268, 48 h, read-out: Activity
# BT-549 = test: Cytotoxicity against human BT549 cells assessed as cell growth at 10 uM after 48 hrs by SRB assay relative to control; format: functional; conditions: BT-549, 48 h, read-out: Activity
# CCRF-CEM = test: Cytotoxicity against human CCRF-CEM cells assessed as cell growth at 10 uM after 48 hrs by SRB assay relative to control; format: functional; conditions: read-out: Activity
# [5] = Cytotoxicity against human EKVX cells assessed as cell growth at 10 uM after 48 hrs by SRB assay relative to control; format: functional; conditions: read-out: Activity
# COLO 205 = test: Cytotoxicity against human COLO205 cells assessed as cell growth at 10 uM after 48 hrs by SRB assay relative to control; format: functional; conditions: COLO 205, 48 h, read-out: Activity
# SN12C = test: Cytotoxicity against human SN12C cells assessed as cell growth at 10 uM after 48 hrs by SRB assay relative to control; format: functional; conditions: read-out: Activity
# [6] = Cytotoxicity against human Hs 578T cells assessed as cell growth at 10 uM after 48 hrs by SRB assay relative to control; format: functional; conditions: read-out: Activity
# MCF7 = test: Growth inhibition of human MCF7 cells after 72 hrs by MTT assay; format: functional, cell-based; conditions: MCF7, 72 h
# HL-60(TB) = test: Cytotoxicity against human HL-60(TB) cells assessed as cell growth at 10 uM after 48 hrs by SRB assay relative to control; format: functional; conditions: HL-60, 48 h, read-out: Activity
# [7] = Cytotoxicity against human HCT116 cells assessed as cell growth at 10 uM after 48 hrs by SRB assay relative to control; format: functional; conditions: HCT-116, 48 h, read-out: Activity
# MDA-MB-468 = test: Cytotoxicity against human MDA-MB-468 cells assessed as cell growth at 10 uM after 48 hrs by SRB assay relative to control; format: functional; conditions: MDA-MB-468, 48 h, read-out: Activity
# RXF 393 = test: Cytotoxicity against human RXF393 cells assessed as cell growth at 10 uM after 48 hrs by SRB assay relative to control; format: functional; conditions: RXF 393, 48 h, read-out: Activity
# NCI-H23 = test: Cytotoxicity against human NCI-H23 cells assessed as cell growth at 10 uM after 48 hrs by SRB assay relative to control; format: functional; conditions: NCI-H23, 48 h, read-out: Activity
# CAKI-1 = test: Cytotoxicity against human Caki1 cells assessed as cell growth at 10 uM after 48 hrs by SRB assay relative to control; format: functional; conditions: CAKI-1, 48 h, read-out: Activity
# Malme-3M = test: Cytotoxicity against human MALME-3M cells assessed as cell growth at 10 uM after 48 hrs by SRB assay relative to control; format: functional; conditions: read-out: Activity
# HOP-92 = test: Cytotoxicity against human HOP92 cells assessed as cell growth at 10 uM after 48 hrs by SRB assay relative to control; format: functional; conditions: HOP-92, 48 h, read-out: Activity
SMILES,growth at 10 µM (NCI-H460) [%],pIC50 (MDA-MB-231),growth at 10 µM (SW-620) [%],growth at 10 µM (SNB-19) [%],growth at 10 µM [1] [%],growth at 10 µM (NCI-H522) [%],growth at 10 µM [2] [%],growth at 10 µM [3] [%],growth at 10 µM (SF-295) [%],growth at 10 µM [4] [%],growth at 10 µM (CCRF-CEM) [%],growth at 10 µM [5] [%],growth at 10 µM (COLO 205) [%],growth at 10 µM (SN12C) [%],growth at 10 µM [6] [%],pIC50 (MCF7),growth at 10 µM (HL-60(TB)) [%],growth at 10 µM [7] [%],growth at 10 µM (MDA-MB-468) [%],growth at 10 µM (RXF 393) [%],other results
CC(C)=CCC[C@H](C)c1ccc(C)c(CNCCCCC(=O)O)c1O,105,< 4.70,98.3,103,102,95.4,81.9,92.3,101,93.3,97.9,97.9,119,102,102,< 4.70,84.6,101,100,121,growth at 10 µM (SR): 85%; growth at 10 µM (DU-145): 110%; growth at 10 µM (SF-268): 105%; growth at 10 µM (BT-549): 111%; growth at 10 µM (NCI-H23): 98.8%; growth at 10 µM (CAKI-1): 90.6%
COc1ccc(CCNCc2c(C)ccc([C@@H](C)CCC=C(C)C)c2O)cc1OC,83.1,< 4.70,84.9,90.8,96.6,75,42.6,84.9,87.9,71,80.1,82.3,67.9,87.1,89.6,< 4.70,85.6,58,67.9,80.8,growth at 10 µM (SR): 53.4%; growth at 10 µM (DU-145): 83.4%; growth at 10 µM (SF-268): 90.7%; growth at 10 µM (NCI-H23): 74%; growth at 10 µM (CAKI-1): 58.4%
CC(C)=CCC[C@H](C)c1ccc(C)c(CNCCCCCO)c1O,94.5,< 4.70,91.9,94.6,99.4,89.2,54.9,94.2,108,72.9,96.5,90.5,105,98,88.4,5.12,87.7,78,79.8,84.6,growth at 10 µM (SR): 84%; growth at 10 µM (DU-145): 108%; growth at 10 µM (SF-268): 87.8%; growth at 10 µM (BT-549): 108%; growth at 10 µM (Malme-3M): 106%; growth at 10 µM (NCI-H23): 92.5%; growth at 10 µM (CAKI-1): 75.2%
CC(C)=CCC[C@H](C)c1ccc(C)c2c1OCN(CCO)C2,96,< 4.70,100,57.9,83.7,78.1,42.4,96.1,98.6,79,87.5,97.2,119,79.6,75.6,5.08,90.8,71.8,82.5,52.4,growth at 10 µM (BT-549): 95.8%; growth at 10 µM (Malme-3M): 89.5%; growth at 10 µM (HOP-92): 4.21%; growth at 10 µM (NCI-H23): 81.7%; growth at 10 µM (CAKI-1): 91.6%
CC(C)=CCC[C@H](C)c1ccc(C)c2c1OCN(CCCCC(=O)O)C2,105,< 4.70,101,92.7,90.8,44.8,69.7,79.7,102,105,93.2,102,110,97.6,104,< 4.70,77.5,88.6,87,102,growth at 10 µM (SR): 105%; growth at 10 µM (DU-145): 118%; growth at 10 µM (SF-268): 100%; growth at 10 µM (Malme-3M): 126%; growth at 10 µM (HOP-92): 83.7%; growth at 10 µM (NCI-H23): 95.1%; growth at 10 µM (CAKI-1): 81%
CC(C)=CCC[C@H](C)c1ccc(C)c(CNCCO)c1O,102,< 4.70,100,88.1,87.6,81.4,54.7,92.7,105,108,102,89,105,91.5,83.1,< 4.70,92.7,93.4,81.7,79.2,growth at 10 µM (SR): 75.7%; growth at 10 µM (DU-145): 98.3%; growth at 10 µM (SF-268): 97.8%; growth at 10 µM (NCI-H23): 89.1%; growth at 10 µM (CAKI-1): 74.6%

# — ChEMBL document CHEMBL3390836, “Mannich- and LedererManasse-based analogues of the natural product S-(+)-curcuphenol as cancer proliferation and migration inhibitors” (Medchemcomm, 2012)
